Reference: PMC12203311, “Design, synthesis, in silico and in vitro evaluation of pyrrole–indole hybrids as dual tubulin and aromatase inhibitors with potent anticancer activities” (RSC Advances, 2025)
Blank lines part the entries; values can stand above or below the compound they belong to.

Legend:
[1] = system: NCI-H226; assay: NCI60 five-dose screen; format: cell-based; settings: Homo sapiens, NCI-H226, NSC lung cancer; for CC50: read-out: LC50 (the source's name)
[2] = system: SNB-75; assay: NCI60 five-dose screen; format: cell-based; settings: Homo sapiens, SNB-75, CNS cancer; for CC50: read-out: LC50 (the source's name)
[3] = system: UACC-257; assay: NCI60 five-dose screen; format: cell-based; settings: Homo sapiens, UACC-257, melanoma; for CC50: read-out: LC50 (the source's name)
[4] = system: HCC-2998; assay: NCI60 five-dose screen; format: cell-based; settings: Homo sapiens, HCC-2998, colon cancer; for CC50: read-out: LC50 (the source's name)
[5] = system: CAKI-1; assay: NCI60 five-dose screen; format: cell-based; settings: Homo sapiens, CAKI-1, renal cancer; for CC50: read-out: LC50 (the source's name)
[6] = system: SK-MEL-5; assay: NCI60 five-dose screen; format: cell-based, human; settings: Homo sapiens; for CC50: SK-MEL-5, SK-MEL-5, melanoma, read-out: LC50 (the source's name); for GI50: SK-MEL-5, melanoma
[7] = system: LOX IMVI; assay: NCI60 five-dose screen; format: cell-based; settings: Homo sapiens, melanoma; for CC50: read-out: LC50 (the source's name)
[8] = system: HT29; assay: NCI60 five-dose screen; format: cell-based; settings: Homo sapiens, HT-29, HT29, colon cancer; for CC50: read-out: LC50 (the source's name)
[9] = system: RPMI-8226; assay: NCI60 five-dose screen; format: cell-based; settings: Homo sapiens, RPMI-8226, leukemia; for CC50: read-out: LC50 (the source's name)
[10] = system: OVCAR-4; assay: NCI60 five-dose screen; format: cell-based; settings: Homo sapiens, OVCAR-4, ovarian cancer; for CC50: read-out: LC50 (the source's name)
[11] = system: 786-0; assay: NCI60 five-dose screen; format: cell-based; settings: Homo sapiens, 786-0, renal cancer; for CC50: read-out: LC50 (the source's name)
[12] = system: DU-145; assay: NCI60 five-dose screen; format: cell-based; settings: Homo sapiens, DU-145, prostate cancer; for CC50: read-out: LC50 (the source's name)
[13] = system: MDA-MB-435; assay: NCI60 five-dose screen; format: cell-based, human; settings: Homo sapiens; for CC50: MDA-MB-435, MDA-MB-435, melanoma, read-out: LC50 (the source's name); for GI50: MDA-MB-435, melanoma
[14] = system: SNB-19; assay: NCI60 five-dose screen; format: cell-based; settings: Homo sapiens, SNB-19, CNS cancer; for CC50: read-out: LC50 (the source's name)
[15] = system: NCI-H460; assay: NCI60 five-dose screen; format: cell-based; settings: Homo sapiens, NCI-H460, NSC lung cancer; for CC50: read-out: LC50 (the source's name)
[16] = biological target: T1, Human CYP19 (aromatase) (Homo sapiens, UniProt P11511); assay: Aromatase inhibition assay (DBF fluorometric substrate); format: biochemical; settings: active defined as IC50 < 12.5 µM
T1 construct: purchased GENTEST, Woburn, MA 456260; host or cells: baculovirus/insect cells
T1 sequence (P11511 1-503): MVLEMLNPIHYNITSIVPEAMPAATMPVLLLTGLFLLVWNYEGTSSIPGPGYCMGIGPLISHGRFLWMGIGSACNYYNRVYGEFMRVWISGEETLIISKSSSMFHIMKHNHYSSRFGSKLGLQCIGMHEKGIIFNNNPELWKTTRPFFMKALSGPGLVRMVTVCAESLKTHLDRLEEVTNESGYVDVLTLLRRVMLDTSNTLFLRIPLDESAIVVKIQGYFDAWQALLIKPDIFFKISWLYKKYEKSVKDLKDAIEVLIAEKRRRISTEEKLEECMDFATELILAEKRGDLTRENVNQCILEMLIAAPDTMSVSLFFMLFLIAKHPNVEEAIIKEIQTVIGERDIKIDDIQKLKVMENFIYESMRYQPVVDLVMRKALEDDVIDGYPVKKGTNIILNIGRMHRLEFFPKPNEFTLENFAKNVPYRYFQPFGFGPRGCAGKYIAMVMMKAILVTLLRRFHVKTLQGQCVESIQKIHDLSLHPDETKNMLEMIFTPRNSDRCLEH
In short: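 Supersomes expressing human CYP19 plus oxidoreductase (baculovirus/insect cell) with fluorometric substrate DBF; cofactor mixture pre-incubated 10 min at 37 °C, reaction run 30 min at 37 °C, stopped with NaOH. Fluorescence read at ex 490/em 530 nm.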

[17] = system: OVCAR-8; assay: NCI60 five-dose screen; format: cell-based; settings: Homo sapiens, OVCAR-8, ovarian cancer; for CC50: read-out: LC50 (the source's name)
[18] = system: OVCAR-5; assay: NCI60 five-dose screen; format: cell-based; settings: Homo sapiens, OVCAR-5, ovarian cancer; for CC50: read-out: LC50 (the source's name)
[19] = system: K-562; assay: NCI60 five-dose screen; format: cell-based; settings: Homo sapiens, K562, K-562, leukemia; for CC50: read-out: LC50 (the source's name)
[20] = system: CCRF-CEM; assay: NCI60 five-dose screen; format: cell-based; settings: Homo sapiens, leukemia; for CC50: read-out: LC50 (the source's name)
[21] = system: NCI-H522; assay: NCI60 five-dose screen; format: cell-based; settings: Homo sapiens, NCI-H522, NSC lung cancer; for CC50: read-out: LC50 (the source's name)
[22] = system: HCT-116; assay: NCI60 five-dose screen; format: cell-based; settings: Homo sapiens, HCT-116, colon cancer; for CC50: read-out: LC50 (the source's name)
[23] = system: ACHN; assay: NCI60 five-dose screen; format: cell-based; settings: Homo sapiens, renal cancer; for CC50: read-out: LC50 (the source's name)

IC50 [16]: > 12.5 µM | aromatase inhibition [16]: inactive against aromatase
Compound: O=C(N/N=C/c1cc([N+](=O)[O-])c[nH]1)c1[nH]c2ccc(Br)cc2c1-c1ccccc1 [Derivative 3q, (E)-5-Bromo-N′-((4-nitro-1H-pyrrol-2-yl)methylene)-3-phenyl-1H-indole-2-carbohydrazide]
GI50 [1]: 3.39 µM | CC50 [1]: > 100 µM | GI50 [2]: 0.242 µM | CC50 [2]: > 100 µM | GI50 [3]: 2.58 µM | CC50 [3]: > 100 µM | GI50 [4]: 3.66 µM | CC50 [4]: > 100 µM | GI50 [5]: 0.53 µM | CC50 [5]: > 100 µM | CC50 [6]: 69.9 µM | GI50 [6]: 0.671 µM | GI50 [7]: 0.647 µM | CC50 [7]: > 100 µM | GI50 [8]: 0.469 µM | CC50 [8]: > 100 µM | GI50 [9]: 3.71 µM | CC50 [9]: > 100 µM | GI50 [10]: 1.06 µM | CC50 [10]: > 100 µM | GI50 [11]: 2.21 µM | CC50 [11]: > 100 µM | GI50 [12]: 3.87 µM | CC50 [12]: > 100 µM | CC50 [13]: 8.78 µM | GI50 [13]: 0.226 µM | GI50 [14]: 6.25 µM | CC50 [14]: > 100 µM | GI50 [15]: 0.328 µM | CC50 [15]: > 100 µM | GI50 [17]: 10.2 µM | CC50 [17]: > 100 µM | GI50 [18]: 5.37 µM | CC50 [18]: > 100 µM | GI50 [19]: 0.387 µM | CC50 [19]: > 100 µM | GI50 [20]: 0.799 µM | CC50 [20]: > 100 µM | GI50 [21]: 0.722 µM | CC50 [21]: > 100 µM | GI50 [22]: 0.491 µM | CC50 [22]: > 100 µM | GI50 [23]: 0.791 µM | CC50 [23]: > 100 µM

IC50 [16]: 0.2 ± 0.1 µM
Compound: Cc1[nH]c(/C=N/NC(=O)c2[nH]c3ccc(Br)cc3c2-c2ccccc2)c(C)c1[N+](=O)[O-] [Derivative 3r, (E)-5-Bromo-N′-((3,5-dimethyl-4-nitro-1H-pyrrol-2-yl)methylene)-3-phenyl-1H-indole-2-carbohydrazide]
GI50 [1]: 3.78 µM | CC50 [1]: 40.6 µM | GI50 [2]: 2.19 µM | CC50 [2]: 21.5 µM | GI50 [3]: 3.13 µM | CC50 [3]: 48.1 µM | GI50 [4]: 2.41 µM | CC50 [4]: 25.4 µM | GI50 [5]: 2.29 µM | CC50 [5]: 33.1 µM | CC50 [6]: 5.87 µM | GI50 [6]: 1.5 µM | GI50 [7]: 1.63 µM | CC50 [7]: 5.73 µM | GI50 [8]: 1.84 µM | CC50 [8]: 6.67 µM | GI50 [9]: 2.7 µM | CC50 [9]: > 100 µM | GI50 [10]: 1.97 µM | CC50 [10]: 18.8 µM | GI50 [11]: 2.35 µM | CC50 [11]: 17 µM | GI50 [12]: 3.48 µM | CC50 [12]: 34.9 µM | CC50 [13]: 17.9 µM | GI50 [13]: 1.77 µM | GI50 [14]: 3.45 µM | CC50 [14]: 43.1 µM | GI50 [15]: 1.87 µM | CC50 [15]: 8.05 µM | GI50 [17]: 3.08 µM | CC50 [17]: 36.5 µM | GI50 [18]: 3.53 µM | CC50 [18]: 41.5 µM | GI50 [19]: 2.69 µM | CC50 [19]: > 100 µM | GI50 [20]: 1.89 µM | CC50 [20]: > 100 µM | GI50 [21]: 2.43 µM | CC50 [21]: 29.6 µM | GI50 [22]: 1.98 µM | CC50 [22]: 10.4 µM | GI50 [23]: 3.3 µM | CC50 [23]: 33.4 µM
